Results as given in PubChem BioAssay AID328 (DTP/NCI, 2004).
Where “and” joins values, the source holds several entries; their conditions need not be identical. Equal entries are not always repeated. Inconclusive results and toxic doses are left out.

Test system: BDF1 mice, P388 leukemia ip, median survival T/C
Test: NCI In Vivo Anticancer Drug Screen. Data for tumor model P388 Leukemia (intraperitoneal) in B6D2F1 (BDF1) mice
Conditions: endpoint: median survival time, higher = longer survival
How it was run: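 Survival ratio, drug arm over vehicle arm, in mice with a transplanted tumour.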

[1] = dose: 100.0 mg/kg/injection, schedule: Q01DX009 (ip), vehicle: Klucel (hydroxypropylcellulose) (HPC)
[2] = dose: 0.5 mg/kg/injection, schedule: Q01DX009 (ip), vehicle: saline
[3] = dose: 100.0 mg/kg/injection, schedule: Q01DX009 (ip), vehicle: saline
[4] = dose: 100.0 mg/kg/injection, schedule: Q04DX003 (ip), vehicle: saline
[5] = dose: 200.0 mg/kg/injection, schedule: Q04DX003 (ip), vehicle: saline
[6] = dose: 400.0 mg/kg/injection, schedule: Q04DX003 (ip), vehicle: saline
[7] = dose: 25.0 mg/kg/injection, schedule: Q01DX009 (ip), vehicle: saline with Tween-80
[8] = dose: 50.0 mg/kg/injection, schedule: Q01DX009 (ip), vehicle: saline with Tween-80
[9] = dose: 100.0 mg/kg/injection, schedule: Q01DX009 (ip), vehicle: saline with Tween-80
[10] = dose: 200.0 mg/kg/injection, schedule: Q01DX009 (ip), vehicle: saline with Tween-80
[11] = dose: 100.0 mg/kg/injection, schedule: Q04DX003 (ip), vehicle: saline with Tween-80
[12] = dose: 200.0 mg/kg/injection, schedule: Q04DX003 (ip), vehicle: saline with Tween-80
[13] = dose: 100.0 mg/kg/injection, schedule: Q04DX003 (ip), vehicle: Klucel (hydroxypropylcellulose) (HPC)
[14] = dose: 200.0 mg/kg/injection, schedule: Q04DX003 (ip), vehicle: Klucel (hydroxypropylcellulose) (HPC)
[15] = dose: 400.0 mg/kg/injection, schedule: Q04DX003 (ip), vehicle: Klucel (hydroxypropylcellulose) (HPC)

CCCCCCCCO/N=C\c1c2c(O)c3c(O)c(C)c4c(c3c1O)C(=O)C(C)(O/C=C\C(OC)C(C)C(OC(C)=O)C(C)C(O)C(C)C(O)C(C)/C=C\C=C(\C)C(=O)N2)O4 (stereo not given)
T/C [1]: 100 % of control | T/C (dose: 200.0 mg/kg/injection, schedule: Q01DX009 (ip), vehicle: Klucel (hydroxypropylcellulose) (HPC)): 100 % of control

O=C1OC(C(O)CO)C(O)=C1O (stereo not given)
T/C (dose: 0.01 mg/kg/injection, schedule: Q01DX009 (ip), vehicle: saline): 105 % of control and 109 % of control | T/C (dose: 0.03 mg/kg/injection, schedule: Q01DX009 (ip), vehicle: saline): 91 % of control and 100 % of control and 118 % of control | T/C (dose: 0.06 mg/kg/injection, schedule: Q01DX009 (ip), vehicle: saline): 97 % of control and 100 % of control and 113 % of control | T/C (dose: 0.24 mg/kg/injection, schedule: Q01DX009 (ip), vehicle: saline): 102 % of control | T/C (dose: 0.25 mg/kg/injection, schedule: Q01DX009 (ip), vehicle: saline): 90 % of control and 110 % of control | T/C [2]: 95 % of control and 105 % of control | T/C (dose: 1.0 mg/kg/injection, schedule: Q01DX001 (ip), vehicle: saline): 100 % of control | T/C (dose: 1.0 mg/kg/injection, schedule: Q01DX009 (ip), vehicle: saline): 90 % of control and 95 % of control | T/C (dose: 2.0 mg/kg/injection, schedule: Q01DX001 (ip), vehicle: saline): 100 % of control | T/C (dose: 2.0 mg/kg/injection, schedule: Q01DX009 (ip), vehicle: saline): 95 % of control | T/C (dose: 4.0 mg/kg/injection, schedule: Q01DX001 (ip), vehicle: saline): 105 % of control | T/C (dose: 4.0 mg/kg/injection, schedule: Q01DX009 (ip), vehicle: saline): 90 % of control | T/C (dose: 8.0 mg/kg/injection, schedule: Q01DX009 (ip), vehicle: saline): 100 % of control | T/C (dose: 16.0 mg/kg/injection, schedule: Q01DX001 (ip), vehicle: saline): 105 % of control | T/C (dose: 16.0 mg/kg/injection, schedule: Q01DX009 (ip), vehicle: saline): 100 % of control | T/C (dose: 32.0 mg/kg/injection, schedule: Q01DX001 (ip), vehicle: saline): 100 % of control | T/C (dose: 32.0 mg/kg/injection, schedule: Q01DX009 (ip), vehicle: saline): 90 % of control | T/C (dose: 64.0 mg/kg/injection, schedule: Q01DX001 (ip), vehicle: saline): 95 % of control | T/C [3]: 100 % of control | T/C [4]: 95 % of control | T/C (dose: 200.0 mg/kg/injection, schedule: Q01DX009 (ip), vehicle: saline): 105 % of control | T/C [5]: 95 % of control | T/C [6]: 95 % of control

CCOC(=O)CN(C)C#N
T/C (dose: 50.0 mg/kg/injection, schedule: Q01DX009 (ip), vehicle: saline): 110 % of control | T/C (dose: 87.5 mg/kg/injection, schedule: Q01DX009 (ip), vehicle: saline): 109 % of control | T/C [3]: 105 % of control | T/C [4]: 104 % of control | T/C (dose: 175.0 mg/kg/injection, schedule: Q01DX009 (ip), vehicle: saline): 104 % of control | T/C [5]: 104 % of control | T/C (dose: 265.0 mg/kg/injection, schedule: Q01DX009 (ip), vehicle: saline): 109 % of control | T/C (dose: 400.0 mg/kg/injection, schedule: Q01DX009 (ip), vehicle: saline): 95 % of control | T/C [6]: 104 % of control

CCCCOC(=O)c1ccc(OCCOc2ccc(C(C)(C)CC(C)(C)C)cc2)c(NC(=O)CC(=O)c2cccc(N)c2)c1
T/C (dose: 6.25 mg/kg/injection, schedule: Q04DX003 (ip), vehicle: saline sonified): 100 % of control | T/C (dose: 12.5 mg/kg/injection, schedule: Q04DX003 (ip), vehicle: saline sonified): 91 % of control

N#Cc1cc([N+](=O)[O-])ccc1Cl
T/C [7]: 90 % of control | T/C [8]: 105 % of control | T/C [9]: 105 % of control

O=C(N/N=C/c1cccc(Cl)c1)c1ccccc1
T/C (dose: 100.0 mg/kg/injection, schedule: Q04DX003 (ip), vehicle: other): 95 % of control | T/C (dose: 200.0 mg/kg/injection, schedule: Q04DX003 (ip), vehicle: other): 95 % of control | T/C (dose: 400.0 mg/kg/injection, schedule: Q04DX003 (ip), vehicle: other): 113 % of control

CN(C)c1ccc(/C=C/c2ccnc3c(Cl)cccc23)cc1
T/C [8]: 94 % of control | T/C [9]: 98 % of control | T/C [10]: 100 % of control

c1cc2c3c(c1)/C(=N\N=C1/CCN4CCCc5cccc1c54)CCN3CCC2
T/C [8]: 104 % of control | T/C (dose: 50.0 mg/kg/injection, schedule: Q04DX003 (ip), vehicle: saline with Tween-80): 90 % of control | T/C [9]: 104 % of control | T/C [11]: 100 % of control | T/C [10]: 104 % of control | T/C [12]: 100 % of control

Cc1cc(C(=O)NN)nn1CCO
T/C (dose: 87.5 mg/kg/injection, schedule: Q01DX009 (ip), vehicle: saline with Tween-80): 89 % of control | T/C (dose: 175.0 mg/kg/injection, schedule: Q01DX009 (ip), vehicle: saline with Tween-80): 88 % of control | T/C (dose: 350.0 mg/kg/injection, schedule: Q01DX009 (ip), vehicle: saline with Tween-80): 114 % of control

Cc1cc(C)c(-n2c(-c3ccc(Cl)cc3)nnc2-c2ccc(Br)cc2)c(C)c1
T/C [13]: 104 % of control | T/C [14]: 100 % of control | T/C [15]: 90 % of control

CC1(C)C(=O)N(Cl)C(=O)N1Cl
T/C (dose: 6.25 mg/kg/injection, schedule: Q01DX009 (ip), vehicle: saline with Tween-80): 109 % of control | T/C (dose: 12.5 mg/kg/injection, schedule: Q01DX009 (ip), vehicle: saline with Tween-80): 113 % of control | T/C [7]: 263 % of control

CC(c1ccccc1)N1COc2ccc3ccccc3c2C1 (stereo not given)
T/C [9]: 100 % of control | T/C [10]: 104 % of control | T/C (dose: 400.0 mg/kg/injection, schedule: Q01DX009 (ip), vehicle: saline with Tween-80): 113 % of control

CC(O)CN1CCCC1 (stereo not given)
T/C (dose: 50.0 mg/kg/injection, schedule: Q04DX003 (ip), vehicle: saline): 91 % of control | T/C [4]: 104 % of control | T/C [5]: 104 % of control

NC(N)=N/N=C/C=N/N=C(N)N
T/C [4]: 100 % of control

CCOC(=O)CSc1cc(C)c2c(N)c(C(=O)OCC)sc2n1
T/C (dose: 50.0 mg/kg/injection, schedule: Q01DX005 (ip), vehicle: saline with Tween-80): 88 % of control | T/C (dose: 100.0 mg/kg/injection, schedule: Q01DX005 (ip), vehicle: saline with Tween-80): 91 % of control | T/C (dose: 200.0 mg/kg/injection, schedule: Q01DX005 (ip), vehicle: saline with Tween-80): 89 % of control

COc1cc(OC)cc(C2=NNc3n[nH]c(=S)n3N2)c1
T/C [11]: 100 % of control | T/C [12]: 95 % of control | T/C (dose: 400.0 mg/kg/injection, schedule: Q04DX003 (ip), vehicle: saline with Tween-80): 100 % of control

CCCCn1cnc2c(SC)nc(N)nc21
T/C (dose: 66.0 mg/kg/injection, schedule: Q01DX009 (ip), vehicle: Klucel (hydroxypropylcellulose) (HPC)): 95 % of control | T/C [1]: 104 % of control | T/C [13]: 100 % of control | T/C (dose: 150.0 mg/kg/injection, schedule: Q01DX009 (ip), vehicle: Klucel (hydroxypropylcellulose) (HPC)): 100 % of control | T/C [14]: 90 % of control | T/C [15]: 90 % of control

C1CN1c1nc(N2CC2)nc(N2CC2)n1
T/C (dose: 0.05 mg/kg/injection, schedule: Q01DX009 (ip), vehicle: saline): 175 % of control | T/C (dose: 0.1 mg/kg/injection, schedule: Q01DX009 (ip), vehicle: saline): 115 % of control | T/C (dose: 0.13 mg/kg/injection, schedule: Q01DX010 (ip), vehicle: saline): 109 % of control | T/C (dose: 0.25 mg/kg/injection, schedule: Q01DX010 (ip), vehicle: saline): 150 % of control | T/C (dose: 0.25 mg/kg/injection, schedule: Q01DX010 (ip), vehicle: water): 190 % of control | T/C (dose: 0.4 mg/kg/injection, schedule: Q01DX009 (ip), vehicle: saline): 159 % of control | T/C [2]: 200 % of control | T/C (dose: 0.5 mg/kg/injection, schedule: Q01DX010 (ip), vehicle: saline): 272 % of control | T/C (dose: 0.5 mg/kg/injection, schedule: Q01DX010 (ip), vehicle: water): 268 % of control | T/C (dose: 0.75 mg/kg/injection, schedule: Q01DX010 (ip), vehicle: water): 268 % of control | T/C (dose: 0.8 mg/kg/injection, schedule: Q01DX009 (ip), vehicle: saline): 86 % of control
